The test system of test [1] is T. gondii RH-YFP tachyzoites. Nature of the test: In vitro challenge assay, RH strain YFP tachyzoites in HFF. It counts as cell-based. The conditions noted are these: Toxoplasma gondii.
The subject of test [2] is P. falciparum strains D6, TM91-C235, W2, C2B. Nature of the test: Malaria SYBR Green I-Based Fluorescence (MSF) assay. It is filed as cell-based. The conditions noted are these: Plasmodium falciparum. Here is the method:
Malaria potency testing in vitro was performed using 4 different P. falciparum strains, D6, TM91-C235, W2, and C2B. The D6 strain is a drug sensitive strain from Sierra Leone, the TM91-C235 strain is a multi-drug resistant strain from Thailand, the W2 strain is a chloroquine resistant strain from Thailand, and the C2B strain is a multi-drug resistant strain with resistance against atovaquone. These assays were performed as described below.
Compound activity against P. falciparum, was tested using the Malaria SYBR Green I–Based Fluorescence (MSF) Assay. The complete method for performing this microtiter assay is described in previous work published by Plouffe et al. ([2008]) and Johnson et al. ([2007]). In brief, this assay uses the binding of the fluorescent dye SYBR Green I to malaria DNA to measure parasite growth in the presence of 2-fold diluted experimental or control. The relative fluorescence of the intercalated SYBR Green I proportional to parasite growth, and inhibitory compounds will result in lower observed fluorescence compared to untreated parasites.

In test [3] the test system is T. gondii mitochondrial membrane potential. Nature of the test: T. gondii mitochondrial membrane potential, safranine method. It counts as cell-based, Toxoplasma gondii. Conditions: permeabilized T. gondii tachyzoites, safranin O. Here is the method:
The mitochondrial membrane potential was measured by the safranine method according to Vercesi et al. ([1998]). Freshly egressed T. gondii tachyzoites were filtered and washed twice with intracellular buffer (125 mM sucrose, 65 mM KCl, 10 mM HEPES-KOH buffer, pH 7.2, 1 mM MgCl2, and 2.5 mM potassium phosphate). After washing, the parasites were resuspended in the same buffer at 10^9/mL. An aliquot of 50 μL of this suspension was added to a cuvette containing Safranin O, 2.5 μM and Succinate 1 mM in final volume of 2 mL of the intracellular buffer. The fluorescence was measured with a Hitachi 7000 spectrofluorometer with settings Ex. 495/Em. 586. Once the baseline fluorescence was stable, 30 μM digitonin was added to permeabilize the parasites. Eighty five seconds after permeabilization, the THQ derivatives, dissolved in DMSO, were added. Five micromolars of FCCP (Carbonyl cyanide-4-(trifluoromethoxy) phenylhydrazone) was used as an uncoupler reference for calculations and its effect was considered 100%. We used similar conditions for measuring the mitochondrial membrane potential of mammalian cells with the following changes: the mammalian cells were resuspended at 10^8/mL. We also used 50 μL of this suspension for each experiment in a total volume of 2 mL. The substrate used for mammalian cells was 5 mM glutamate and 5 mM malate. A higher concentration of digitonin (50 μM) was used to permeabilize the mammalian cells. The compounds were added at ~400 s after permeabilization. Each experiment was repeated at least three times in duplicates. Statistical analysis, unpaired student t-test, was performed using GraphPad Prism 8.0 (GraphPad Software, Inc., San Diego, CA).
Mitochondrial membrane potential measurements were performed with permeabilized T. gondii tachyzoites in suspension using safranin O, which loads into polarized membranes [see section Materials and Methods in the Supplemental Materials (Vercesi et al., [1998])]. T. gondii tachyzoites were permeabilized with digitonin to allow the mitochondrial substrate succinate to cross the membrane and energize the mitochondrion. The fluorescence of safranin O, which loads into energized mitochondria was used to measure the membrane potential. The energized state of the mitochondrion is observed by a decrease in fluorescence (Figures 3A,C,E). Trifluoromethoxy carbonylcyanide phenylhydrazone (FCCP) was used to depolarize the membrane, which is observed as an increase in fluorescence (Figures 3A,B). JAG21 depolarized the membrane potential even at concentrations as low as 2 nM (Figures 3C,D). JAG21 and Atovaquone had similar effects on the mitochondrial membrane potential (Figure 3D). […]

Setting [4] is: RH-YFP tachyzoites in HFF, Figure 1A, read-out: Tachy IC50.
[5] abbreviates: T. gondii tachyzoites, initial library, read-out: IC50.
[6] abbreviates: C2B, multi-drug resistant strain with resistance against atovaquone, read-out: SYBR Green C2B IC50.
Setting [7] is: D6, drug sensitive strain, read-out: SYBR Green D6 IC50.
Setting [8] is: TM91-C235, multi-drug resistant strain, read-out: SYBR Green C235 IC50.
The mark [9] stands for this setting: W2, chloroquine resistant strain, read-out: SYBR Green W2 IC50.

SMILES strings stand for the structures. Where two headings read alike, the source gives them in different places.

These results are taken from article PMC7311950, “Potent Tetrahydroquinolone Eliminates Apicomplexan Parasites” (Frontiers in Cellular and Infection Microbiology, 2020).

Broadly, the IC50 is the concentration that inhibits the measured activity by half. One may read the IC90 as the concentration at which the effect reaches the 90% level. With `Cc1[nH]c2c(c(=O)c1-c1ccc(Oc3ccc(OC(F)(F)F)cc3)cc1)CCCC2` [JAG21, 2-Methyl-3-(4-(4-(Trifluoromethoxy)Phenoxy)Phenyl)-5,6,7,8-Tetrahydroquinolin-4-One], the concentration for half-maximal inhibition (IC50) is 120 nM in test [1] (setting [4]); 55 nM in test [1] (setting [5]); 40.4 nM in test [2] (setting [6]); 14 to 61 nM in test [2] (D6, TM91-C235, W2 and C2B, range over strains, read-out: IC50 values against drug sensitive and resistant strains); 14.3 nM in test [2] (setting [7]); 61.6 nM in test [2] (setting [8]). The IC50 in test [2] (setting [9]) was 55.2 nM. Also, the IC90 in test [1] (supplement summary) is under 50 nM; in test [2] (supplement summary, read-out: IC90, drug resistant Plasmodium falciparum in vitro) it was under 50 nM. Besides, in test [3], the “concentration that depolarized the mitochondrial membrane potential” value is recorded as at most 2 nM.
On to `Cc1[nH]c2c(c(=O)c1-c1ccc(Oc3ccc(Cl)cc3)cc1)CCCC2` [JAG50], for which the IC50 in test [1] (setting [4]) came to 85 nM; in test [1] (setting [5]) it was 33 nM; in test [2] (setting [6]), 36.4 nM; in test [2] (setting [7]) it was 46.6 nM; in test [2] (setting [8]), 69.1 nM; in test [2] (setting [9]) it was 31.4 nM. The “concentration that depolarized the mitochondrial membrane potential” value in test [3] was at least 200 nM.
